Measured values: patent US20110086875A1, “Powdered Medicament for Nasal Delivery of Ascorbic Acid for Reducing Apomorphine Induced Toxicity to Ciliated Tissue” (BRITANNIA PHARMACEUTICALS LIMITED, priority 2007, published 2011)

System: ciliated tissue taken from the trachea of a chick embryo
Experiment: Cilia beat frequency (CBF) model
Assay type: cell-based
Source text: By “toxic” herein is meant that the active agent has an adverse effect on the cilia beat frequency of ciliated tissue taken from the trachea of a chick embryo according to the model that is well known in the art (“The Effect of Nasal Drug Formulations on Ciliary Beating in Vitro,” Romeijn, et al.; Int. J. Pharm., 135; 1996: 137-145; “Classification of Cilio-Inhibiting Effects of Nasal Drugs,” Merkus, et al., Laryngoscope, 111(4); April 2001: 595-602). By “ameliorating said toxicity” herein is meant that the adverse effect of the active agent on the cilia beat frequency is lessened as a result of the inclusion in the medicament of ascorbic acid for co-administration with said active agent. […]
The cilia beat frequency (CBF) model is a recognised technique to investigate the relative toxicity of substances applied in solution to a section of ciliated tissue taken from the trachea of a chick embryo (Romeijn, et al., 1996, Merkus, et al., 2001). […] The tissue is then transferred to a well containing 1.0 ml of test solution and the impact on CBF assessed. Further, the reversibility of any effects can be measured by washing the tissue in Locke-Ringer solution 15 minute post administration and evaluating the recovery of CBF.

SMILES | reversibility of toxic effect on CBF after washing | effect of adding ascorbic acid on the apomorphine-induced arrest of cilia beat movement (1% wt. ascorbic acid added to 1% apomorphine in MLR solution, single administration, FIG. 1)
CN1CCc2cccc3c2[C@H]1Cc1ccc(O)c(O)c1-3 [apomorphine] | irreversible | –
O=C1O[C@H]([C@@H](O)CO)C(O)=C1O [ascorbic acid] | – | ameliorated significantly
